Experimental data taken from PubChem BioAssay (NCI).
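Five compound concentrations were applied to cells in 96-well plates for 48 hours; endpoints were derived by simple linear interpolation of the resulting dose-response curve. TGI marks complete inhibition of growth.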

Assays:
Assay in all cases: NCI tumour cell line growth inhibition, 48 h
[1] = tested on: 786-0 renal
[2] = tested on: A498 renal
[3] = tested on: A549 NSCLC
[4] = tested on: ACHN renal
[5] = tested on: BT-549 breast
[6] = tested on: CAKI-1 renal
[7] = tested on: CCRF-CEM leukemia
[8] = tested on: COLO 205 colon
[9] = tested on: DU-145 prostate
[10] = tested on: EKVX NSCLC
[11] = tested on: HCC-2998 colon
[12] = tested on: HCT-116 colon
[13] = tested on: HCT-15 colon
[14] = tested on: HL-60(TB) leukemia
[15] = tested on: HOP-62 NSCLC
[16] = tested on: HOP-92 NSCLC
[17] = tested on: HS 578T breast
[18] = tested on: HT29 colon
[19] = tested on: IGROV1 ovarian
[20] = tested on: K-562 leukemia
[21] = tested on: KM12 colon
[22] = tested on: LOX IMVI melanoma
[23] = tested on: M14 melanoma
[24] = tested on: MALME-3M melanoma
[25] = tested on: MCF7 breast
[26] = tested on: MDA-MB-231 breast
[27] = tested on: MDA-MB-435
[28] = tested on: MDA-N
[29] = tested on: MOLT-4 leukemia
[30] = tested on: NCI-H226 lung
[31] = tested on: NCI-H23 lung
[32] = tested on: NCI-H460 lung
[33] = tested on: NCI-H522 lung
[34] = tested on: NCI/ADR-RES ovarian
[35] = tested on: OVCAR-3 ovarian
[36] = tested on: OVCAR-4 ovarian
[37] = tested on: OVCAR-5 ovarian
[38] = tested on: OVCAR-8 ovarian
[39] = tested on: PC-3 prostate
[40] = tested on: RPMI-8226 leukemia
[41] = tested on: RXF 393 renal
[42] = tested on: SF-268 CNS
[43] = tested on: SF-295 CNS
[44] = tested on: SK-MEL-2 melanoma
[45] = tested on: SK-MEL-28 melanoma
[46] = tested on: SK-MEL-5 melanoma
[47] = tested on: SK-OV-3 ovarian
[48] = tested on: SN12C renal
[49] = tested on: SNB-19 CNS
[50] = tested on: SNB-75 CNS
[51] = tested on: SW-620 colon
[52] = tested on: T-47D breast
[53] = tested on: TK-10 renal
[54] = tested on: U251 CNS
[55] = tested on: UACC-257 melanoma
[56] = tested on: UACC-62 melanoma
[57] = tested on: UO-31 renal
[58] = tested on: SF-539 CNS
[59] = tested on: SR leukemia

For COc1c2cc([N+](=O)[O-])cc1CNC(=O)CN1CCOCCOCCN(CCOCCOCC1)CC(=O)NC2, the TGI [1] was > 100 µM, the TGI [2] was > 100 µM and the TGI [3] was > 100 µM. The TGI [4] was > 100 µM, the TGI [5] was > 100 µM and the TGI [6] was > 100 µM. For the same compound, the TGI [7] was > 100 µM, the TGI [8] was > 100 µM and the TGI [9] was > 100 µM. The TGI [10] was > 100 µM, the TGI [11] was > 100 µM and the TGI [12] was > 100 µM. The TGI [13] was > 100 µM, the TGI [14] was > 100 µM and the TGI [15] was > 100 µM. For the same compound, the TGI [16] was > 100 µM, the TGI [17] was > 100 µM and the TGI [18] was > 100 µM. The TGI [19] was > 100 µM, the TGI [20] was > 100 µM and the TGI [21] was > 100 µM. The TGI [22] was > 100 µM, the TGI [23] was > 100 µM and the TGI [24] was > 100 µM. The TGI [25] was > 100 µM, the TGI [26] was > 100 µM and the TGI [27] was > 100 µM. The TGI [28] was > 100 µM, the TGI [29] was > 100 µM and the TGI [30] was > 100 µM. The TGI [31] was > 100 µM, the TGI [32] was > 100 µM and the TGI [33] was > 100 µM. For the same compound, the TGI [34] was > 100 µM, the TGI [35] was > 100 µM and the TGI [36] was > 100 µM. The TGI [37] was > 100 µM, the TGI [38] was > 100 µM and the TGI [39] was > 100 µM. The TGI [40] was > 100 µM, the TGI [41] was > 100 µM and the TGI [42] was > 100 µM. For the same compound, the TGI [43] was > 100 µM, the TGI [44] was > 100 µM and the TGI [45] was > 100 µM. For the same compound, the TGI [46] was > 100 µM, the TGI [47] was > 100 µM and the TGI [48] was > 100 µM. For the same compound, the TGI [49] was > 100 µM, the TGI [50] was > 100 µM and the TGI [51] was > 100 µM. The TGI [52] was > 100 µM, the TGI [53] was > 100 µM and the TGI [54] was > 100 µM. For the same compound, the TGI [55] was > 100 µM, the TGI [56] was > 100 µM and the TGI [57] was > 100 µM.

COC(=O)[C@H](Cc1ccccc1)NC(=O)c1ccc(CNC(=O)/C=C/c2ccc(-c3ccccc3)cc2)cc1 was tested, and the TGI [1] was > 100 µM, the TGI [2] was > 100 µM and the TGI [3] was > 100 µM. For the same compound, the TGI [4] was > 100 µM, the TGI [5] was 97.2 µM and the TGI [6] was > 100 µM. The TGI [7] was > 100 µM, the TGI [8] was > 100 µM and the TGI [9] was > 100 µM. For the same compound, the TGI [10] was > 100 µM, the TGI [11] was > 100 µM and the TGI [12] was > 100 µM. For the same compound, the TGI [13] was > 100 µM, the TGI [14] was > 100 µM and the TGI [15] was 45.4 µM. The TGI [16] was > 100 µM, the TGI [17] was 54.5 µM and the TGI [18] was > 100 µM. For the same compound, the TGI [19] was > 100 µM, the TGI [20] was > 100 µM and the TGI [21] was > 100 µM. For the same compound, the TGI [23] was > 100 µM, the TGI [24] was > 100 µM and the TGI [25] was > 100 µM. The TGI [26] was 76.7 µM, the TGI [27] was > 100 µM and the TGI [28] was > 100 µM. For the same compound, the TGI [29] was > 100 µM, the TGI [30] was > 100 µM and the TGI [31] was > 100 µM. The TGI [32] was > 100 µM, the TGI [34] was > 100 µM and the TGI [35] was > 100 µM. For the same compound, the TGI [36] was > 100 µM, the TGI [37] was > 100 µM and the TGI [38] was > 100 µM. The TGI [39] was > 100 µM, the TGI [40] was > 100 µM and the TGI [41] was 40.3 µM. For the same compound, the TGI [42] was > 100 µM, the TGI [43] was 94.5 µM and the TGI [44] was > 100 µM. The TGI [45] was > 100 µM, the TGI [46] was > 100 µM and the TGI [47] was > 100 µM. For the same compound, the TGI [48] was > 100 µM, the TGI [49] was 39.1 µM and the TGI [50] was 48.3 µM. For the same compound, the TGI [51] was > 100 µM, the TGI [52] was > 100 µM and the TGI [53] was > 100 µM. The TGI [54] was 37.3 µM, the TGI [55] was > 100 µM and the TGI [56] was > 100 µM. For the same compound, the TGI [57] was > 100 µM.

O=c1cnn(C/C=C\CO)c(=O)[nH]1 was tested, and the TGI [2] was > 100 µM, the TGI [3] was > 100 µM and the TGI [4] was > 100 µM. The TGI [6] was > 100 µM, the TGI [7] was > 100 µM and the TGI [8] was > 100 µM. For the same compound, the TGI [9] was > 100 µM, the TGI [10] was > 100 µM and the TGI [11] was > 100 µM. For the same compound, the TGI [13] was > 100 µM, the TGI [14] was > 100 µM and the TGI [15] was > 100 µM. For the same compound, the TGI [16] was > 100 µM, the TGI [17] was > 100 µM and the TGI [19] was > 100 µM. For the same compound, the TGI [20] was > 100 µM, the TGI [21] was > 100 µM and the TGI [22] was > 100 µM. For the same compound, the TGI [23] was > 100 µM, the TGI [24] was > 100 µM and the TGI [25] was > 100 µM. For the same compound, the TGI [26] was > 100 µM, the TGI [27] was > 100 µM and the TGI [28] was > 100 µM. The TGI [30] was > 100 µM, the TGI [31] was > 100 µM and the TGI [32] was > 100 µM. The TGI [33] was > 100 µM, the TGI [34] was > 100 µM and the TGI [35] was > 100 µM. The TGI [37] was > 100 µM, the TGI [38] was > 100 µM and the TGI [39] was > 100 µM. For the same compound, the TGI [40] was > 100 µM, the TGI [41] was > 100 µM and the TGI [42] was > 100 µM. For the same compound, the TGI [58] was > 100 µM, the TGI [44] was > 100 µM and the TGI [45] was > 100 µM. The TGI [46] was > 100 µM, the TGI [48] was > 100 µM and the TGI [49] was > 100 µM. The TGI [50] was > 100 µM, the TGI [59] was > 100 µM and the TGI [51] was > 100 µM. For the same compound, the TGI [52] was > 100 µM, the TGI [53] was > 100 µM and the TGI [54] was > 100 µM. For the same compound, the TGI [55] was > 100 µM and the TGI [57] was > 100 µM.
